Experimental data from patent US7507704B1, “Receptor modulated cancer protocols” (priority 2002, dated 2009).

Columns and labels:
[1] = in vivo; cited from earlier work
[2] = rifampicin co-administered with erlotinib; cited from earlier work
Metastatic Breast Cancer [3] = settings: cytotoxics q 21 days × 6, trastuzumab q week, actual Phase III data; cited from earlier work
Metastatic Breast Cancer [4] = test: Skipper log cell kill model projection for trastuzumab regimens (antagonistic scenario); settings: estimated from AC group, 23%÷68%

In the case of CC/C(=C(\c1ccccc1)c1ccc(OCCN(C)C)cc1)c1ccccc1 [Tamoxifen], the “plasma concentration half life” value [1] is listed as 120 to 170 h.

In the case of CO[C@H]1/C=C/O[C@@]2(C)Oc3c(C)c(O)c4c(O)c(c(/C=N/N5CCN(C)CC5)c(O)c4c3C2=O)NC(=O)/C(C)=C\C=C\[C@H](C)[C@H](O)[C@@H](C)[C@@H](O)[C@@H](C)[C@H](OC(C)=O)[C@@H]1C [Rifampicin], the “increased clearance of erlotinib” value [2] is given as 3 fold.

In the case of CC(=O)O[C@H]1C(=O)[C@@]2(C)[C@H]([C@H](OC(=O)c3ccccc3)[C@]3(O)C[C@H](OC(=O)[C@H](O)[C@@H](NC(=O)c4ccccc4)c4ccccc4)C(C)=C1C3(C)C)[C@]1(OC(C)=O)CO[C@@H]1C[C@@H]2O [Paclitaxel], the “Median Survival” value (Metastatic Breast Cancer [3]) is given as 18.4 months.

In the case of O=P1(N(CCCl)CCCl)NCCCO1 (stereo not shown) [C, cyclophosphamide], the “"stand alone" tumor kill rate” value (Metastatic Breast Cancer [4]) is reported as 34%.
